Like-named read-outs stand apart in the source and are kept apart here.
Target: T1, HDM2 (Homo sapiens, UniProt Q00987)
T1 construct: Thioredoxin (N); made in house; host or cells: E. coli strain BL21(DE3)Rosetta
Assay: HDM2 FRET assay (inhibition of binding of FITC labeled p53-pocket peptide to HDM2)
Conditions: read-out: FRET IC50
How it was run: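 Displacement of FITC-p53 peptide (3 nM) from His-tagged HDM2 (0.5 nM) is measured by Tb-to-fluorescein FRET in PBS, 0.01% BSA, 0.01% Tween-20. IC50 values derive from 10-point curves.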

[1] = 0.5 nM HDM2 (residues 17 to 125), 3nM peptide, two hour incubation at room temperature

T1 sequence (Q00987 17-125): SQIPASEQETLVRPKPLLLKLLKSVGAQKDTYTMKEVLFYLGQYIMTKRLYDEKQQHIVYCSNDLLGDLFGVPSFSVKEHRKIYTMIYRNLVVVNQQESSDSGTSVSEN

Which IC50 (Table 23) does the source give for C[C@H]1CC[C@H](Cn2c(C(=O)C3CCOCC3)nc3nc(-c4n[nH]c(=O)o4)nc(-c4cccc(Cl)c4)c32)CC1 [Example 23.9, 5-[6-(3-chlorophenyl)-7-[(trans-4-methylcyclohexyl)methyl] -8-(tetrahydro-2H-pyran-4-ylcarbonyl)-7H-purin-2-yl]-1,3,4-oxadiazol-2(3H)-one] here?
Its IC50 is 24.6 nM.

For Cc1cccc(-c2nc3nc(C(=O)O)nc(N[C@H](CCCO)C4CCC4)c3n2Cc2ccc(Cl)cc2)c1 [Example 7.1, 7-(4-chlorobenzyl)-6-{[(1R)-1-cyclobutyl-4-hydroxybutyl]amino}-8-(3-methylphenyl)-7H-purine-2-carboxylic acid], which IC50 (Table 7) is on record?
The IC50 was 105 nM.

For CCCC1CCCN1c1nc(C(=O)O)nc2nc(-c3cccc(C)c3)n(Cc3ccc(C(F)(F)F)cc3)c12 (centres unmarked) [Example 6.86, 8-(3-methylphenyl)-6-(2-propylpyrrolidin-1-yl)-7-[4-(trifluoromethyl)benzyl]-7H-purine-2-carboxylic acid], which IC50 (Table 6) is on record?
Its IC50 is 754 nM.

C[C@@H](Nc1nc(C(=O)O)nc2nc(N(CC3CC3)[C@@H](C)c3ccccc3)n(Cc3ccc(C(F)(F)F)cc3)c12)C1CCC1 [Example 10.29, 6-(((R)-1-Cyclobutylethyl)amino)-8-((cyclopropylmethyl)((S)-1-phenylethyl)amino)-7-(4-(trifluoromethyl)benzyl)-7H-purine-2-carboxylic acid] was tested. Which IC50 (Table 10) did it give?
Its IC50 is 35.3 nM.

For CC(C)C1CCCN1c1nc2nc(-c3noc(=O)[nH]3)nc(N[C@H](C)C3CCC3)c2n1Cc1ccc(C(F)(F)F)cc1 (stereo partly drawn) [Example 9.86, 3-(6-{[(1R)-1-cyclobutylethyl]amino}-8-[2-(1-methylethyl)pyrrolidin-1-yl]-7-[4-(trifluoromethyl)benzyl]-7H-purin-2-yl)-1,2,4-oxadiazol-5(4H)-one], which IC50 (Table 9) is on record?
Its IC50 is 10.2 nM.

Which IC50 (Table 9) does the source give for C[C@@H](Nc1nc(C(=O)O)nc2nc(N3CCCC3c3ccccc3)n(Cc3ccc(C(F)(F)F)cc3)c12)C1CCC1 (stereo partly drawn) [Example 9.52, 6-{[(1R)-1-cyclobutylethyl]amino}-8-(2-phenylpyrrolidin-1-yl)-7-[4-(trifluoromethyl)benzyl]-7H-purine-2-carboxylic acid] here?
The IC50 was 31.9 nM.

Which IC50 (Table 6) does the source give for CC[C@@H](Nc1nc(C(=O)O)nc2nc(-c3cc(C(C)C)ccn3)n(Cc3ccc(C(F)(F)F)cc3)c12)C1CCC1 [Example 6.55, 6-{[(1R)-1-cyclobutylpropyl]amino}-8-[4-(1-methylethyl)pyridin-2-yl]-7-[4-(trifluoromethyl)benzyl]-7H-purine-2-carboxylic acid] here?
The IC50 was 9.27 nM.

For C[C@@H](Nc1nc(-c2n[nH]c(=O)o2)nc2nc(N3CCO[C@H](C)[C@@H]3C)n(C[C@H]3CC[C@H](C)CC3)c12)C1CCC1 (single isomer, unassigned) [Example 11.157], which IC50 (Table 11) is on record?
The IC50 was 47 nM.

C[C@H]1CC[C@H](Cn2c(N3CCOC[C@H]3c3ccccn3)nc3nc(-c4n[nH]c(=O)o4)nc(-c4cccc(Cl)c4)c32)CC1 [Example 16.99, 5-{6-(3-chlorophenyl)-7-[(trans-4-methylcyclohexyl)methyl]-8-[(3R)-3-pyridin-2-ylmorpholin-4-yl]-7H-purin-2-yl}-1,3,4-oxadiazol-2(3H)-one] was tested. Which IC50 [1] did it give?
Its IC50 is 1.98 nM.

How did the IC50 [1] turn out when CC(C)c1cc(-c2nc3nc(C(=O)O)nc(N[C@H](C)C4CCC4)c3n2C[C@H]2CC[C@H](C)CC2)[nH]c(=O)c1 [Example 15.3, 6-(((R)-1-cyclobutylethyl)amino)-8-(4-isopropyl-6-oxo-1,6-dihydropyridin-2-yl)-7-((trans-4-methylcyclohexyl)methyl)-7H-purine-2-carboxylic acid] was run?
Its IC50 is 15.5 nM.

With C[C@H]1CC[C@H](Cn2c(N3CCO[C@H]4CCC[C@@H]43)nc3nc(-c4n[nH]c(=O)o4)nc(-c4cccc(Cl)c4)c32)CC1 [Example 16.83, 5-{6-(3-chlorophenyl)-8-[(4aS,7aS)-hexahydrocyclopenta [b][1,4]oxazin-4(4aH)-yl]-7-[(trans-4-methylcyclohexyl)methyl]-7H-purin-2-yl}-1,3,4-oxadiazol-2(3H)-one] as the compound, how does the IC50 [1] read?
Its IC50 is 186 nM.
